Like-named read-outs stand apart in the source and are kept apart here.
Tests used:
RIL-175 cells = experiment: CXCL10 secretion by RIL-175 cells in vitro (ELISA); assay type: cell-based, mouse; settings: 2μM for 36hr; ELISA; n=6
Description: To determine if CXCL10 was produced by murine HCC cells in response to regorafenib treatment, we next cultured RIL-175 cells with various concentration of regorafenib in vitro and measured the CXCL10 levels by ELISA. […]
treated by regorafenib as standard of care (HCC) (using the DFCI Protocol No.: 13-416 “Collection of Specimens and Clinical Data for Patients with Known or Suspected Solid Tumors”, PI, Dr. Juric, MGH) or in a phase I clinical trial of regorafenib monotherapy in acute myeloid leukemia (AML) patients (ClinicalTrials.gov Identifier: NCT03042689, PI, Hobbs, MGH). Both protocols have been IRB approved, and written consent was obtained from all patients.
Protein analyses. Western blotting was performed using antibodies against Stat1 (D1K9Y), phosphorylated (p)-Stat1 (Tyr701) (D4A7), Stat3 (79D7), p-Stat3 (Ser727) (Cell Signaling Technology, Danvers, MA), and IFN-γ (EPR1108) (Abcam, Cambridge, MA). Multiplexed protein array analysis was performed for protein extracts from whole tumors, using V-PLEX Proinflammatory Panel 1 Mouse Kit, V-PLEX Cytokine Panel 1 Mouse Kit and V-PLEX […] (Meso-Scale Discovery, Rockville, MD). For cell supernatant collection, 1x10^6 of RIL-175 cells were cultured in DMEM medium with 2% FBS and regorafenib was given in a various dose.
Supernatant was collected after 36hr of incubation and multiplexed protein array analysis was done using the same kit above.
Flow cytometry analysis. Tumor tissues were extracted from the mice, weighted and minced with a scalpel. Hank’s buffered salt solution (HBSS) with 1.5mg/ml of collagenase and hyaluronidase was added to the minced tissues and incubated for 30 min at 37°C. After incubation, digested tissues were passed through the 70μm cell strainer and washed with PBS with 2% BSA. After preparation, cells were suspended in 2ml of PBS with 2% BSA, then counted using a cell counting plate (Kova slide) (if the final concentration of cell exceeded 10^7 cells/ml, a dilution factor was applied). One hundred microliters of this suspension were used per subsequent flow cytometry staining. […]

[1] = mouse, in vivo
Description: From the orthotopic HCC and liver damage mouse models described above, blood samples were collected at 1, 4, 7 and 24 hours after once-daily oral administration of 5, 10 and 20 mg/kg regorafenib, respectively, for 5 days. Anti-PD1 antibody was given on days 1 and 4 with dose of 10 mg/kg by intraperitoneal injection. Blood samples were drawn from four to five animals per sampling time point. Regorafenib and its active metabolites M-2, M-4 and M-5 were analyzed in plasma samples using a validated bioanalytical liquid chromatography-tandem mass spectrometry.[25 33] Pharmacokinetic (PK) parameters were derived from the area under the plasma concentration versus time curve (AUC) using a non-compartmental analysis.
In addition, we evaluated PK parameters in HCC-bearing mice after regorafenib administration alone at doses of 5, 10 and 20 mg/kg or in combination with anti-PD1 therapy at the 10 mg/kg regorafenib dose for 5 days to achieve a steady state.

advanced HCC [2] = tested on: advanced HCC; design: method as in ref 4 5; settings: patients with advanced HCC; ref 4 5; cited from earlier work
advanced HCC [3] = tested on: advanced HCC; design: method as in ref 14 15; settings: previously treated patients with advanced HCC; phase I/II trial data; ref 14 15; cited from earlier work

**Q.** With NS(=O)(=O)c1cccc2c1C(=O)c1cccc(O)c1C2=O [LLL12] as the compound, how does the “CXCL10 expression in RIL-175 cells” value (RIL-175 cells) read?
**A.** significantly increased

**Q.** For NC(=O)c1cc(Oc2ccc(NC(=O)Nc3ccc(Cl)c(C(F)(F)F)c3)c(F)c2)ccn1 [M-4], which “Plasma Tmax” value [1] is on record?
**A.** 7 h

**Q.** What about the “Tumor Tmax” value [1] of the same compound?
**A.** 7 h

**Q.** And the “Plasma AUC” value ([1]; po, 5 mg/kg)?
**A.** 363 ng·h/mL

**Q.** What about the “Plasma AUCnorm” value ([1]; po, 5 mg/kg) of the same compound?
**A.** 0.0749 kg·h/L

**Q.** And the “Plasma Cmax” value ([1]; po, 5 mg/kg)?
**A.** 21.7 ng/mL

**Q.** And the “Plasma Tmax” value ([1]; po, 5 mg/kg)?
**A.** 7 h

**Q.** And the “Tumor AUC” value ([1]; po, 5 mg/kg)?
**A.** 1040 ng·h/mL

**Q.** And the “Tumor AUCnorm” value ([1]; po, 5 mg/kg)?
**A.** 0.209 kg·h/L

**Q.** And the “Tumor Cmax” value ([1]; po, 5 mg/kg)?
**A.** 52.8 µg/kg

**Q.** What about the “Tumor Tmax” value ([1]; po, 5 mg/kg) of the same compound?
**A.** 4 h

**Q.** And the “Plasma AUC” value ([1]; po, 10 mg/kg)?
**A.** 663 ng·h/mL

**Q.** And the “Plasma AUCnorm” value ([1]; po, 10 mg/kg)?
**A.** 0.0684 kg·h/L

**Q.** What about the “Plasma Cmax” value ([1]; po, 10 mg/kg) of the same compound?
**A.** 40.5 ng/mL

**Q.** And the “Plasma Tmax” value ([1]; po, 10 mg/kg)?
**A.** 7 h

**Q.** And the “Tumor AUC” value ([1]; po, 10 mg/kg)?
**A.** 2100 ng·h/mL

**Q.** What about the “Tumor AUCnorm” value ([1]; po, 10 mg/kg) of the same compound?
**A.** 0.210 kg·h/L

**Q.** And the “Tumor Cmax” value ([1]; po, 10 mg/kg)?
**A.** 117 µg/kg

**Q.** What about the “Tumor Tmax” value ([1]; po, 10 mg/kg) of the same compound?
**A.** 7 h

**Q.** And the “Plasma AUC” value ([1]; po, 20 mg/kg)?
**A.** 1480 ng·h/mL

**Q.** And the “Plasma AUCnorm” value ([1]; po, 20 mg/kg)?
**A.** 0.0763 kg·h/L

**Q.** And the “Plasma Cmax” value ([1]; po, 20 mg/kg)?
**A.** 124 ng/mL

**Q.** And the “Plasma Tmax” value ([1]; po, 20 mg/kg)?
**A.** 7 h

**Q.** And the “Tumor AUC” value ([1]; po, 20 mg/kg)?
**A.** 3780 ng·h/mL

**Q.** What about the “Tumor AUCnorm” value ([1]; po, 20 mg/kg) of the same compound?
**A.** 0.189 kg·h/L

**Q.** And the “Tumor Cmax” value ([1]; po, 20 mg/kg)?
**A.** 214 µg/kg

**Q.** And the “Tumor Tmax” value ([1]; po, 20 mg/kg)?
**A.** 7 h

**Q.** Which “OS benefit over placebo” value (advanced HCC [2]) does the source give for CNC(=O)c1cc(Oc2ccc(NC(=O)Nc3ccc(Cl)c(C(F)(F)F)c3)cc2)ccn1 [Sorafenib] here?
**A.** approximately 3 months

**Q.** Which Responses (advanced HCC [3]) does the source give for nivolumab: anti-PD1 antibody here?
**A.** 14%–31%

**Q.** With pembrolizumab: anti-PD1 antibody as the compound, how does the Responses (advanced HCC [3]) read?
**A.** 14%–31%

— PMC7689089, “Regorafenib combined with PD1 blockade increases CD8 T-cell infiltration by inducing CXCL10 expression in hepatocellular carcinoma” (Journal for Immunotherapy of Cancer, 2020)
